± gives the standard deviation of the reports.

As for `*C(=O)c1ccc2c(c1)C(=O)N(c1cc(N3C(=O)c4ccc(*)cc4C3=O)cc(C(F)(F)F)c1)C2=O` (repeat unit), the glass transition temperature was 294.8 ± 1.1 °C.
For `*C(=O)c1ccc2c(c1)C(=O)N(c1ccc(C(=O)c3ccc(N4C(=O)c5ccc(*)cc5C4=O)cc3)cc1)C2=O` (repeat unit) the value was 293.00 ± 4.9 °C; for `*C(=O)c1ccc2c(c1)C(=O)N(c1ccc(N3C(=O)c4ccc(*)cc4C3=O)cc1)C2=O` (repeat unit), 325.00 ± 11 °C; for `*C(=O)c1ccc2c(c1)C(=O)N(c1ccc(Oc3ccc(C(c4ccc(Oc5ccc(N6C(=O)c7ccc(*)cc7C6=O)cc5)cc4)(C(F)(F)F)C(F)(F)F)cc3)cc1)C2=O` (repeat unit), 248.8 ± 18 °C.
The compound `*C(=O)c1ccc2c(c1)C(=O)N(c1ccc(Oc3ccc(N4C(=O)c5ccc(*)cc5C4=O)cc3)cc1)C2=O` (repeat unit) yielded a glass transition temperature of 290.00 ± 28 °C.
As for `*C(=O)c1ccc2c(c1)C(=O)N(c1cccc(C(O[Si](C)(C)O[Si](C)(C)O[Si](C)(C)C)c3cccc(N4C(=O)c5ccc(*)cc5C4=O)c3)c1)C2=O` (repeat unit), the glass transition temperature was found to be 235.00 °C.
As for `*C(=O)c1ccc2c(c1)C(=O)N(c1cccc(Cc3cccc(N4C(=O)c5ccc(*)cc5C4=O)c3)c1)C2=O` (repeat unit), the glass transition temperature was found to be 249.50 ± 20 °C.
For the compound `*C(=O)c1ccc2c(c1)C(=O)N(c1cccc(S(=O)(=O)c3cccc(N4C(=O)c5ccc(*)cc5C4=O)c3)c1)C2=O` (repeat unit), the glass transition temperature worked out at 275.50 ± 3.5 °C.
Take `*C(=S)Nc1ccc(Oc2ccc(NC(=S)n3c(=O)c4cc5c(=O)n(*)c(=O)c5cc4c3=O)cc2)cc1` (repeat unit): the glass transition temperature was 265.00 °C.
As to `*CC/C=C(/*)C(C)C` (repeat unit), the glass transition temperature was -47.00 °C.
Consider `*Oc1ccc(C2(c3ccc(Oc4ccc(C(=O)c5cccc6cccc(C(=O)c7ccc(*)cc7)c56)cc4)cc3)c3ccccc3-c3ccccc32)cc1` (repeat unit), for which the glass transition temperature turned out to be 269.00 °C.
As to `*Oc1ccc(Oc2ccc(C(=O)c3cccc4cccc(C(=O)c5ccc(*)cc5)c34)cc2)cc1` (repeat unit), the glass transition temperature was 202.00 °C.
As to `*Oc1ccc(Oc2ccc(C(=O)c3ccccc3-c3ccccc3C(=O)c3ccc(*)cc3)cc2)cc1` (repeat unit), the glass transition temperature is 175.00 °C.
Regarding `*c1cc(CCCCCCCC)c(*)s1` (repeat unit), the glass transition temperature is -13.10 ± 5.5 °C.
As for `*c1cc(CCCCCCCCCCCC)c(*)s1` (repeat unit), the glass transition temperature is -24.2 ± 8.1 °C.
For `*c1ccc(-c2ccc(-n3c(=O)c4cc5c(=O)n(*)c(=O)c5cc4c3=O)cc2OC(F)(F)F)c(OC(F)(F)F)c1` (repeat unit) the value was 373.50 ± 15 °C; for `*c1ccc(-c2nnc(-c3cccc(-c4nnc(*)o4)c3)o2)cc1` (repeat unit), 278.00 °C.
`*c1ccc(/C=C(\C#N)c2cc(OCCCCCCCC)c(/C(C#N)=C/c3ccc(N(*)c4ccccc4)cc3)cc2OCCCCCCCC)cc1` (repeat unit) gave a glass transition temperature of 78.00 °C.
`*c1ccc(C(c2ccc(-n3c(=O)c4cc5c(=O)n(*)c(=O)c5cc4c3=O)cc2)(C(F)(F)F)C(F)(F)F)cc1` (repeat unit) displayed a glass transition temperature of 362.50 ± 25 °C.
For `*c1ccc(Cc2ccc(-c3nc(-c4cccc(-c5nnc(-c6ccccc6)c(*)n5)n4)nnc3-c3ccccc3)cc2)cc1` (repeat unit), the glass transition temperature came out at 205.00 °C.
For `*c1ccc(Cc2ccccc2-n2c(=O)c3cc4c(=O)n(*)c(=O)c4cc3c2=O)cc1` (repeat unit) the value was 356.50 °C.
For `*c1ccc(Oc2ccc(C(c3ccc(Oc4ccc(-n5c(=O)c6cc7c(=O)n(*)c(=O)c7cc6c5=O)cc4)cc3)(C(F)(F)F)C(F)(F)F)cc2)cc1` (repeat unit) the value was 302.50 ± 11 °C.
For the compound `*c1ccc(Oc2ccc(N3C(=O)c4ccc(Oc5ccc(C(c6ccc(Oc7ccc8c(c7)C(=O)N(*)C8=O)cc6)(C(F)(F)F)C(F)(F)F)cc5)cc4C3=O)cc2)cc1` (repeat unit), the glass transition temperature came to 226.50 ± 43 °C.
For the compound `*c1ccc(Oc2ccc(N3C(=O)c4cccc(Oc5cccc6c5C(=O)N(*)C6=O)c4C3=O)cc2)cc1` (repeat unit), the glass transition temperature came out at 293.8 ± 1.8 °C.
For `*c1ccc(Oc2ccc(Oc3ccc(N4C(=O)c5cccc(Oc6cccc7c6C(=O)N(*)C7=O)c5C4=O)cc3)cc2)cc1` (repeat unit) the value was 260.50 ± 3.5 °C.
As for `*c1ccc(Oc2ccccc2-n2c(=O)c3cc4c(=O)n(*)c(=O)c4cc3c2=O)cc1` (repeat unit), the glass transition temperature stood at 386.00 °C.
The compound `*c1ccc2c(c1)C(=O)N(c1ccc(S(=O)(=O)c3ccc(N4C(=O)c5ccc(C(*)(C(F)(F)F)C(F)(F)F)cc5C4=O)cc3)cc1)C2=O` (repeat unit) gave a glass transition temperature of 336.50 ± 0.7 °C.
On to `*c1ccc2c(c1)C(=O)N(c1cccc(Oc3cccc(Oc4cccc(N5C(=O)c6ccc(C(*)(C(F)(F)F)C(F)(F)F)cc6C5=O)c4)c3)c1)C2=O` (repeat unit), for which the glass transition temperature worked out at 206.50 ± 0.7 °C.
On to `*c1ccc2c3ccc(-c4ccc(-c5ccc(-c6ccc(*)s6)c6nsnc56)s4)cc3n(C(CCCCCCCC)CCCCCCCC)c2c1` (repeat unit), for which the glass transition temperature was 121.00 ± 7.1 °C.
The compound `*c1cccc(-c2ccc3[nH]c(S(=O)(=O)c4nc5ccc(*)cc5[nH]4)nc3c2)c1` (repeat unit) gave a glass transition temperature of 290.00 °C.
`*c1cccc(-c2nc3cc(-c4ccc5c(c4)nc(*)n5C)ccc3[nH]2)c1` (repeat unit) yielded a glass transition temperature of 346.66 °C.
The compound `*c1cccc(-c2nc3cc4nc(-c5ccccc5)c(*)nc4cc3nc2-c2ccccc2)c1` (repeat unit) showed a glass transition temperature of 365.00 °C.
With `*c1cccc(-c2nc3ccc(-c4ccc5nc(*)[nH]c5c4)cc3[nH]2)c1` (repeat unit), the glass transition temperature is 420.00 °C.
In turn, `*c1cccc(C(F)(F)C(F)(F)C(*)(F)F)c1` (repeat unit) gave a glass transition temperature of 29.00 °C.
`*c1cccc(C(O[Si](C)(C)O[Si](C)(C)O[Si](C)(C)C)c2cccc(N3C(=O)c4ccc(Oc5ccc6c(c5)C(=O)N(*)C6=O)cc4C3=O)c2)c1` (repeat unit) displayed a glass transition temperature of 219.00 °C.
On to `*c1cccc(Cc2cccc(-n3c(=O)c4cc5c(=O)n(*)c(=O)c5cc4c3=O)c2)c1` (repeat unit), for which the glass transition temperature came out at 327.50 °C.
The compound `*c1cccc(Oc2ccc(-c3ccc(Oc4cccc(-n5c(=O)c6cc7c(=O)n(*)c(=O)c7cc6c5=O)c4)cc3)cc2)c1` (repeat unit) had a glass transition temperature of 251.00 °C.
For `*c1cccc(Oc2ccc(P(=O)(c3ccccc3)c3ccccc3)c(Oc3cccc(-n4c(=O)c5cc6c(=O)n(*)c(=O)c6cc5c4=O)c3)c2)c1` (repeat unit) the value was 251.00 °C; for `*c1cccc(Oc2cccc(Oc3cccc(N4C(=O)c5c(c(-c6ccccc6)c(-c6ccc(-c7c(-c8ccccc8)c8c(c(-c9ccccc9)c7-c7ccccc7)C(=O)N(*)C8=O)cc6)c(-c6ccccc6)c5-c5ccccc5)C4=O)c3)c2)c1` (repeat unit), 280.00 °C; for `*c1cccc(P(=O)(c2ccc(C(F)(F)F)cc2)c2cccc(-n3c(=O)c4c(-c5ccccc5)c5c(=O)n(*)c(=O)c5c(-c5ccccc5)c4c3=O)c2)c1` (repeat unit), 337.00 °C.
For `*c1cccc(P(=O)(c2ccc(C(F)(F)F)cc2)c2cccc(-n3c(=O)c4cc5c(=O)n(*)c(=O)c5c(-c5cc(C(F)(F)F)cc(C(F)(F)F)c5)c4c3=O)c2)c1` (repeat unit) the value was 290.00 °C; for `*c1cccc(P(=O)(c2ccc(C(F)(F)F)cc2)c2cccc(-n3c(=O)c4cc5c(=O)n(*)c(=O)c5cc4c3=O)c2)c1` (repeat unit), 311.00 °C.
`*c1cccc(P(=O)(c2cccc(-n3c(=O)c4c(-c5cc(C(F)(F)F)cc(C(F)(F)F)c5)c5c(=O)n(*)c(=O)c5c(-c5cc(C(F)(F)F)cc(C(F)(F)F)c5)c4c3=O)c2)c2cc(C(F)(F)F)cc(C(F)(F)F)c2)c1` (repeat unit) had a glass transition temperature of 293.00 °C.
For `*c1cccc(P(=O)(c2cccc(-n3c(=O)c4c(-c5ccc(C(F)(F)F)cc5)c5c(=O)n(*)c(=O)c5c(-c5ccc(C(F)(F)F)cc5)c4c3=O)c2)c2cc(C(F)(F)F)cc(C(F)(F)F)c2)c1` (repeat unit) the value was 310.00 °C; for `*c1cccc(P(=O)(c2cccc(-n3c(=O)c4cc5c(=O)n(*)c(=O)c5c(-c5cc(C(F)(F)F)cc(C(F)(F)F)c5)c4c3=O)c2)c2cc(C(F)(F)F)cc(C(F)(F)F)c2)c1` (repeat unit), 280.00 °C.
The compound `*c1cccc(P(=O)(c2cccc(-n3c(=O)c4cc5c(=O)n(*)c(=O)c5c(-c5ccccc5)c4c3=O)c2)c2cc(C(F)(F)F)cc(C(F)(F)F)c2)c1` (repeat unit) yielded a glass transition temperature of 300.00 °C.
Take `*c1cccc(P(=O)(c2cccc(-n3c(=O)c4cc5c(=O)n(*)c(=O)c5cc4c3=O)c2)c2cc(C(F)(F)F)cc(C(F)(F)F)c2)c1` (repeat unit): the glass transition temperature amounted to 281.00 °C.
Take `*c1cccc(P(C)(=O)c2cccc(N3C(=O)c4ccc(NC(=O)OCCOc5ccc(C(c6ccc(OCCOC(=O)Nc7ccc8c(c7)C(=O)N(*)C8=O)cc6)(C(F)(F)F)C(F)(F)F)cc5)cc4C3=O)c2)c1` (repeat unit): the glass transition temperature came out at 204.00 °C.
Regarding `*c1cccc(S(=O)(=O)c2cccc(-n3c(=O)c4cc5c(=O)n(*)c(=O)c5cc4c3=O)c2)c1` (repeat unit), the glass transition temperature turned out to be 360.00 °C.
`*c1cnc(C2C(c3ccccc3)C(*)C2c2ccccc2)cn1` (repeat unit) returned a glass transition temperature of 150.00 °C.
`*c1nc(C)nc(N(CCCCCCN(*)c2ccccc2)c2ccccc2)n1` (repeat unit) came in with a glass transition temperature of 67.00 °C.
As for `*c1nc(C)nc(N(CCCCN(*)c2ccccc2)c2ccccc2)n1` (repeat unit), the glass transition temperature was 85.00 °C.
For `*c1nnc(-c2cc(CCCCCCCC)c(-c3ccc(-c4sc(-c5nnc(-c6cc(OCCCCCCCC)c(*)cc6OCCCCCCCC)o5)cc4CCCCCCCC)s3)s2)o1` (repeat unit) the value was 34.10 °C.

(Values after the PolyMetriX glass transition set.)
